Results from the supplement of paper PMC10307832.

Key:
Assay in all cases: relative viability (nuclei count vs DMSO), 5 days (fraction); higher = more cells survive
[1] = test system: NCI-H596
In short: (§1)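 Medians of duplicate plates are given as relative viability. That measure is the nuclei count in treated wells divided by the count in vehicle wells. Counts were taken on 4× images of lung cancer cell lines in 1536-well plates, 5 days after pin-tool dosing the day after seeding with one drug alone or a fixed anchor-drug dose plus five library-drug doses (not always all listed) in √10 steps.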

[2] = test system: BEN
In short: as §1

[3] = test system: NCI-H1944
In short: as §1

[4] = test system: 201T
In short: as §1

[5] = test system: NCI-H1792
In short: as §1

[6] = test system: NCI-H1650
In short: as §1

[7] = test system: NCI-H520
In short: as §1

[8] = test system: NCI-H460
In short: as §1

[9] = test system: NCI-H2087
In short: as §1

[10] = test system: NCI-H2023
In short: as §1

[11] = test system: NCI-H727
In short: as §1

[12] = test system: H3255
In short: as §1

[13] = test system: LC-2-ad
In short: as §1

[14] = test system: NCI-H441
In short: as §1

[15] = test system: NCI-H1651
In short: as §1

[16] = test system: LCLC-97TM1
In short: as §1

[17] = test system: CAL-12T
In short: as §1

[18] = test system: PC-3 [JPC-3]
In short: as §1

[19] = test system: NCI-H1915
In short: as §1

[20] = test system: A-427
In short: as §1

Molecule `NC(=O)Nc1cc(-c2cccc(F)c2)sc1C(=O)N[C@H]1CCCNC1` [AZD7762] + CC1(C)CCC(c2ccc(Cl)cc2)=C(CN2CCN(c3ccc(C(=O)NS(=O)(=O)c4ccc(N[C@H](CCN5CCOCC5)CSc5ccccc5)c(S(=O)(=O)C(F)(F)F)c4)cc3)CC2)C1 [Navitoclax] (partner 0.5 µM) has a relative viability ([1]; first compound 0.01 µM) of 1.14, a relative viability ([1]; first compound 0.03162 µM) of 0.936 and a relative viability ([1]; first compound 0.1 µM) of 1.06. The relative viability ([1]; first compound 0.3162 µM) was 0.912, the relative viability ([1]; first compound 1 µM) was 0.698 and the relative viability ([2]; first compound 0.01 µM) was 0.0635. For the same molecule, the relative viability ([2]; first compound 0.03162 µM) was 0.0616, the relative viability ([2]; first compound 0.1 µM) was 0.0641 and the relative viability ([2]; first compound 0.3162 µM) was 0.0656. The relative viability ([2]; first compound 1 µM) was 0.0695, the relative viability ([3]; first compound 0.01 µM) was 1.06 and the relative viability ([3]; first compound 0.03162 µM) was 1.14. For the same molecule, the relative viability ([3]; first compound 0.1 µM) was 1.1, the relative viability ([3]; first compound 0.3162 µM) was 1.12 and the relative viability ([3]; first compound 1 µM) was 0.816. The relative viability ([4]; first compound 0.01 µM) was 1.18, the relative viability ([4]; first compound 0.03162 µM) was 1.23 and the relative viability ([4]; first compound 0.1 µM) was 1.21. It also gave a relative viability ([4]; first compound 0.3162 µM) of 1.25, a relative viability ([4]; first compound 1 µM) of 1.27 and a relative viability ([5]; first compound 0.01 µM) of 0.677. The relative viability ([5]; first compound 0.03162 µM) was 0.686, the relative viability ([5]; first compound 0.1 µM) was 0.692 and the relative viability ([5]; first compound 0.3162 µM) was 0.565. For the same molecule, the relative viability ([5]; first compound 1 µM) was 0.72, the relative viability ([6]; first compound 0.01 µM) was 1.33 and the relative viability ([6]; first compound 0.03162 µM) was 1.42. It also gave a relative viability ([6]; first compound 0.1 µM) of 1.22, a relative viability ([6]; first compound 0.3162 µM) of 0.917 and a relative viability ([6]; first compound 1 µM) of 0.327. The relative viability ([7]; first compound 0.01 µM) was 1.11, the relative viability ([7]; first compound 0.03162 µM) was 1.13 and the relative viability ([7]; first compound 0.1 µM) was 1.07. It also gave a relative viability ([7]; first compound 0.3162 µM) of 0.595, a relative viability ([7]; first compound 1 µM) of 0.45 and a relative viability ([8]; first compound 0.01 µM) of 1.25. The relative viability ([8]; first compound 0.03162 µM) was 1.15, the relative viability ([8]; first compound 0.1 µM) was 1.11 and the relative viability ([8]; first compound 0.3162 µM) was 0.861. The relative viability ([8]; first compound 1 µM) was 0.0845, the relative viability ([9]; first compound 0.01 µM) was 1.13 and the relative viability ([9]; first compound 0.03162 µM) was 1. It also gave a relative viability ([9]; first compound 0.1 µM) of 1.27, a relative viability ([9]; first compound 0.3162 µM) of 1.17 and a relative viability ([9]; first compound 1 µM) of 1.28. For the same molecule, the relative viability ([10]; first compound 0.01 µM) was 0.992, the relative viability ([10]; first compound 0.03162 µM) was 0.771 and the relative viability ([10]; first compound 0.1 µM) was 0.663. The relative viability ([10]; first compound 0.3162 µM) was 0.287, the relative viability ([10]; first compound 1 µM) was 0.118 and the relative viability ([11]; first compound 0.01 µM) was 0.456. It also gave a relative viability ([11]; first compound 0.03162 µM) of 0.54, a relative viability ([11]; first compound 0.1 µM) of 0.397 and a relative viability ([11]; first compound 0.3162 µM) of 0.318. It also gave a relative viability ([11]; first compound 1 µM) of 0.111, a relative viability ([12]; first compound 0.01 µM) of 0.51 and a relative viability ([12]; first compound 0.03162 µM) of 0.509. It also gave a relative viability ([12]; first compound 0.1 µM) of 0.526, a relative viability ([12]; first compound 0.3162 µM) of 0.524 and a relative viability ([12]; first compound 1 µM) of 0.448. For the same molecule, the relative viability ([13]; first compound 0.01 µM) was 0.491, the relative viability ([13]; first compound 0.03162 µM) was 0.476 and the relative viability ([13]; first compound 0.1 µM) was 0.415. It also gave a relative viability ([13]; first compound 0.3162 µM) of 0.414, a relative viability ([13]; first compound 1 µM) of 0.309 and a relative viability ([14]; first compound 0.01 µM) of 0.803. The relative viability ([14]; first compound 0.03162 µM) was 0.684, the relative viability ([14]; first compound 0.1 µM) was 0.721 and the relative viability ([14]; first compound 0.3162 µM) was 0.479. The relative viability ([14]; first compound 1 µM) was 1.1, the relative viability ([15]; first compound 0.01 µM) was 1.16 and the relative viability ([15]; first compound 0.03162 µM) was 0.964. It also gave a relative viability ([15]; first compound 0.1 µM) of 0.922, a relative viability ([15]; first compound 0.3162 µM) of 0.855 and a relative viability ([15]; first compound 1 µM) of 0.283. For the same molecule, the relative viability ([16]; first compound 0.01 µM) was 0.343, the relative viability ([16]; first compound 0.03162 µM) was 0.517 and the relative viability ([16]; first compound 0.1 µM) was 0.51. For the same molecule, the relative viability ([16]; first compound 0.3162 µM) was 0.457, the relative viability ([16]; first compound 1 µM) was 0.237 and the relative viability ([17]; first compound 0.01 µM) was 1.23. The relative viability ([17]; first compound 0.03162 µM) was 1.18, the relative viability ([17]; first compound 0.1 µM) was 1.24 and the relative viability ([17]; first compound 0.3162 µM) was 1.09. The relative viability ([17]; first compound 1 µM) was 0.169, the relative viability ([18]; first compound 0.01 µM) was 0.776 and the relative viability ([18]; first compound 0.03162 µM) was 0.824. It also gave a relative viability ([18]; first compound 0.1 µM) of 0.802, a relative viability ([18]; first compound 0.3162 µM) of 0.847 and a relative viability ([18]; first compound 1 µM) of 0.823. The relative viability ([19]; first compound 0.01 µM) was 0.783, the relative viability ([19]; first compound 0.03162 µM) was 0.78 and the relative viability ([19]; first compound 0.1 µM) was 0.784. The relative viability ([19]; first compound 0.3162 µM) was 0.806, the relative viability ([19]; first compound 1 µM) was 0.672 and the relative viability ([20]; first compound 0.01 µM) was 0.951. For the same molecule, the relative viability ([20]; first compound 0.03162 µM) was 0.948, the relative viability ([20]; first compound 0.1 µM) was 1.08 and the relative viability ([20]; first compound 0.3162 µM) was 1.04. For the same molecule, the relative viability ([20]; first compound 1 µM) was 0.36.
